# Data from patent US20260022143A1, “Cyclic Peptide Inhibitors of IL-23” (JANSSEN PHARMACEUTICA NV, priority 2022, published 2026).
# Where a name gives a salt, the structure may show the parent alone. Starred links: 1 amine or outer side, 2 acyl side, 3 side chain; linkers in the order of their positions; H or OH if unused. Positions of bridges follow the written chain, without caps; N, C: chain ends. Non-standard residues stand in square brackets, D forms with d. Residues, ends and D or L forms follow the SMILES beside them. *: point of attachment. Trp(7-(3-AcNH-Ph)) = CC(=O)Nc1cccc(-c2cccc3c(C[C@H](N)C(=O)O)c[nH]c23)c1; X56 = CCCCCCCCCCCC(=O)NCCOCCOCC(=O)NCCOCCOCC(=O)NCC[N+](C)(C)CC(=O)*; Me3N+(CH2)2O(CH2)2O(CH2)2CO = C[N+](C)(C)CCOCCOCCC(=O)*; PEG12 = NCCOCCOCCOCCOCCOCCOCCOCCOCCOCCOCCOCCOCCC(=O)O; CH2CH2OCH2CH2OCH2CH2NMe3+ = C[N+](C)(C)CCOCCOCC*; Trp(7-Me) = Cc1cccc2c(C[C@H](N)C(=O)O)c[nH]c12; PEG9 = NCCOCCOCCOCCOCCOCCOCCOCCOCCOCCC(=O)O; X1 = CN(CC[C@H](N[*:1])C(=O)[*:2])[*:3]; Pro(4,4-F2) = O=C(O)[C@@H]1CC(F)(F)CN1; 2Nal = N[C@@H](Cc1ccc2ccccc2c1)C(=O)O; AEF = NCCOc1ccc(C[C@H](N)C(=O)O)cc1; X74 = C[N+]1(CCOCCOCC*)CCC(F)(F)CC1; X82 = C[N+](C)(C)CCOCCOCCOCCOCCN*; 3Pal = N[C@@H](Cc1cccnc1)C(=O)O; Lys(Me) = CNCCCC[C@H](N)C(=O)O; X7 = COCCOCCOCCOCCOCCOCCC(=O)*; NMeK = CN[C@@H](CCCCN)C(=O)O; Pen = CC(C)(S)[C@H](N)C(=O)O; X31 = N=C(N)NCCOCCC(=O)*; Thp = NC1(C(=O)O)CCOCC1; PEG2 = NCCOCCOCCC(=O)O; X3 = C[N+](C)(C)CCCCC*; Tfa = O=C(C(F)(F)F)*; Sar = CNCC(=O)O; X58 = NCCCCC*
# Assay: Exposed Polar Surface Area (EPSA)
# Format: physicochemical
# Conditions: SFC on Chirex 3014 column; sample 1 mM DMSO stock; read-out: EPSA
# In short: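 SFC retention on a Chirex 3014 (S-valine/(R)-1-(α-naphthyl)ethylamine) column at 35 °C, 4 mL/min, 14 MPa outlet, 5–60% methanol/20 mM ammonium formate gradient in CO2. Retention times converted to EPSA (Å²) via linear calibration with 8 standards; samples from 1 mM DMSO stock, run in duplicate.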
row,Compound,EPSA
1,"CC(=O)N(C)CCCC[C@H](NC(=O)[C@H](Cc1c[nH]c2ccccc12)NC(=O)[C@H](Cc1ccc2ccccc2c1)NC(=O)[C@H](Cc1ccc(OCCOCCOCC[N+](C)(C)C)cc1)NC(=O)[C@H]1NC(=O)[C@H](Cc2c[nH]c3ccccc23)NC(=O)[C@H](Cc2c[nH]c3c(C)cccc23)NC(=O)[C@H]([C@@H](C)O)NC(=O)[C@H](Cc2c[nH]c3ccccc23)NC(=O)[C@@H](NC(=O)CCOCCOCC[N+](C)(C)C)C(C)(C)SSC1(C)C)C(=O)N[C@@H](CC(N)=O)C(=O)N[C@@H](Cc1cccnc1)C(=O)N(C)CC(=O)N(C)C [compound 465, cPEG3aCO-Pen(3)-W-T-7MeW-W-Pen(3)-APEG3f-2Nal-W-K(NMeAc)-N-3Pya-Sar-CON(Me)2] ({Me3N+(CH2)2O(CH2)2O(CH2)2CO}-[Pen]WT[Trp(7-Me)]W[Pen]Y(CH2CH2OCH2CH2OCH2CH2NMe3+)[2Nal]W[Lys(Me)](Ac)N[3Pal][Sar]-NMe2; disulfide 1-6)",176 A^2
2,"CC(=O)N(C)CCCC[C@@H]1NC(=O)[C@H](Cc2c[nH]c3c(C)cccc23)NC(=O)[C@H]([C@@H](C)O)NC(=O)[C@H](CC(=O)N(C)C)NC(=O)[C@@H](NC(=O)CCOCCOCC[N+](C)(C)C)C(C)(C)SSC(C)(C)[C@@H](C(=O)N[C@@H](Cc2ccc(OCCOCCOCC[N+]3(C)CCC(F)(F)CC3)cc2)C(=O)N[C@@H](Cc2ccc3ccccc3c2)C(=O)NC2(C(=O)N[C@@H](CCCCN(C)C(C)=O)C(=O)N[C@@H](CC(N)=O)C(=O)N[C@@H](Cc3cccnc3)C(=O)N(C)CC(=O)N(C)C)CCOCC2)NC1=O [compound 298, cPEG3aCO-Pen(3)-N(N(Me)2)-T-7MeW-K(NMeAc)-Pen(3)-dFPPEG3F-2Nal-THP-K(NMeAc)-N-3Pya-Sar-CON(Me)2] ({Me3N+(CH2)2O(CH2)2O(CH2)2CO}-[Pen]D(NMe2)T[Trp(7-Me)][Lys(Me)](Ac)[Pen]Y(X74)[2Nal][Thp][Lys(Me)](Ac)N[3Pal][Sar]-NMe2; disulfide 1-6)",149 A^2
3,"COCCOCCOCCOCCOCCOCCC(=O)N(C)CC[C@@H]1NC(=O)[C@H](Cc2c[nH]c3c(C)cccc23)NC(=O)[C@H]([C@@H](C)O)NC(=O)[C@H](CC(=O)N(C)C)NC(=O)[C@@H](NC(C)=O)C(C)(C)SSC(C)(C)[C@@H](C(=O)N[C@@H](Cc2ccc(OCCN)cc2)C(=O)N[C@@H](Cc2ccc3ccccc3c2)C(=O)NC2(C(=O)N[C@@H](CCC(=O)O)C(=O)N[C@@H](CC(N)=O)C(=O)N[C@@H](Cc3cccnc3)C(=O)N(C)CC(=O)N(C)C)CCOCC2)NC1=O [compound 158, MeCO-Pen(3)-N(N(Me)2)-T-7MeW-Dab(NMeCOmPEG6)-Pen(3)-AEF-2Nal-THP-E-N-3Pya-Sar-CON(Me)2] (Ac-[Pen]D(NMe2)T[Trp(7-Me)][X1](X7)[Pen][AEF][2Nal][Thp]EN[3Pal][Sar]-NMe2; disulfide 1-6)",160 A^2
4,"CCCCCCCCCCCC(=O)NCCOCCOCC(=O)NCCOCCOCC(=O)NCC[N+](C)(C)CC(=O)NCCCC[C@@H](C(N)=O)N(C)C(=O)[C@H](Cc1cccnc1)NC(=O)[C@H](CC(N)=O)NC(=O)[C@H](CCCCN(C)C(C)=O)NC(=O)C1(NC(=O)[C@H](Cc2ccc3ccccc3c2)NC(=O)[C@H](Cc2ccc(OCCCCC[N+](C)(C)C)cc2)NC(=O)[C@H]2NC(=O)[C@H](CCCCNC(C)=O)NC(=O)[C@H](Cc3c[nH]c4c(C)cccc34)NC(=O)[C@H]([C@@H](C)O)NC(=O)[C@H](CC(=O)N(C)C)NC(=O)[C@@H](NC(=O)CCOCCOCC[N+](C)(C)C)C(C)(C)SSC2(C)C)CCOCC1 [compound 407, cPEG3aCO-Pen(3)-N(N(Me)2)-T-7MeW-K(Ac)-Pen(3)-TMAPF-2Nal-THP-K(NMeac)-N-3Pya-NMeK(SP6PEG2PEG2C12)-CONH2] ({Me3N+(CH2)2O(CH2)2O(CH2)2CO}-[Pen]D(NMe2)T[Trp(7-Me)]K(Ac)[Pen]Y(X3)[2Nal][Thp][Lys(Me)](Ac)N[3Pal][NMeK](X56)-NH2; disulfide 1-6)",151 A^2
5,CC(=O)NCCCC[C@@H]1NC(=O)[C@H](Cc2c[nH]c3c(C)cccc23)NC(=O)[C@H]([C@@H](C)O)NC(=O)[C@H](CC(N)=O)NC(=O)[C@@H](NC(=O)[C@@H](CCCNC(=N)N)NC(=O)CCOCCOCCOCCOCCOCCOCCOCCOCCOCCNC(C)=O)C(C)(C)SSC(C)(C)[C@@H](C(=O)N[C@@H](Cc2ccc(OCCN)cc2)C(=O)N[C@@H](Cc2ccc3ccccc3c2)C(=O)NC2(C(=O)N[C@@H](CCC(=O)O)C(=O)N[C@@H](CC(N)=O)C(=O)N[C@@H](Cc3cccnc3)C(=O)N(C)CC(N)=O)CCOCC2)NC1=O [compound 43] (Ac-[PEG9][dR][Pen]NT[Trp(7-Me)]K(Ac)[Pen][AEF][2Nal][Thp]EN[3Pal][Sar]-NH2; disulfide 3-8),173 A^2
6,CC(=O)NCCCC[C@@H]1NC(=O)[C@H](Cc2c[nH]c3c(C)cccc23)NC(=O)[C@H]([C@@H](C)O)NC(=O)[C@H](CC(N)=O)NC(=O)[C@@H](NC(=O)[C@@H](CCCNC(=N)N)NC(=O)CCOCCOCCOCCOCCOCCOCCOCCOCCOCCOCCOCCOCCNC(C)=O)C(C)(C)SSC(C)(C)[C@@H](C(=O)N[C@@H](Cc2ccc(OCCN)cc2)C(=O)N[C@@H](Cc2ccc3ccccc3c2)C(=O)NC2(C(=O)N[C@@H](CCC(=O)O)C(=O)N[C@@H](CC(N)=O)C(=O)N[C@@H](Cc3cccnc3)C(=O)N(C)CC(N)=O)CCOCC2)NC1=O [compound 38] (Ac-[PEG12][dR][Pen]NT[Trp(7-Me)]K(Ac)[Pen][AEF][2Nal][Thp]EN[3Pal][Sar]-NH2; disulfide 3-8),172 A^2

# Now from value to compound:
row,EPSA,Compound
1,155 A^2,"CC(=O)NCCCC[C@@H]1NC(=O)[C@H](Cc2c[nH]c3c(C)cccc23)NC(=O)[C@H]([C@@H](C)O)NC(=O)[C@H](CC(N)=O)NC(=O)[C@@H](NC(=O)C(F)(F)F)C(C)(C)SSC(C)(C)[C@@H](C(=O)N[C@@H](Cc2ccc(OCCN)cc2)C(=O)N[C@@H](Cc2ccc3ccccc3c2)C(=O)NC2(C(=O)N[C@@H](CCCCNC(C)=O)C(=O)N[C@@H](CC(N)=O)C(=O)N[C@@H](Cc3cccnc3)C(=O)N3CC(F)(F)C[C@H]3C(=O)N(C)C)CCOCC2)NC1=O [compound 73] (Tfa-[Pen]NT[Trp(7-Me)]K(Ac)[Pen][AEF][2Nal][Thp]K(Ac)N[3Pal][Pro(4,4-F2)]-NMe2; disulfide 1-6 (inferred))"
2,176 A^2,"CC(=O)NCCCC[C@@H]1NC(=O)[C@H](Cc2c[nH]c3c(-c4cccc(NC(C)=O)c4)cccc23)NC(=O)[C@H]([C@@H](C)O)NC(=O)[C@H](CC(N)=O)NC(=O)[C@@H](NC(=O)CCOCCOCC[N+](C)(C)C)C(C)(C)SSC(C)(C)[C@@H](C(=O)N[C@@H](Cc2ccc(OCCN)cc2)C(=O)N[C@@H](Cc2ccc3ccccc3c2)C(=O)NC2(C(=O)N[C@@H](CCCCNC(C)=O)C(=O)N[C@@H](CC(N)=O)C(=O)N[C@@H](Cc3cccnc3)C(=O)N(C)CC(N)=O)CCOCC2)NC1=O [compound 445, cPEG3aCO-Pen(3)-N-T-7(3NAcPh)W-K(Ac)-Pen(3)-AEF-2Nal-THP-K(Ac)-N-3Pya-Sar-CONH2] ({Me3N+(CH2)2O(CH2)2O(CH2)2CO}-[Pen]NT[Trp(7-(3-AcNH-Ph))]K(Ac)[Pen][AEF][2Nal][Thp]K(Ac)N[3Pal][Sar]-NH2; disulfide 1-6)"
3,150 A^2,CC(=O)NCCCC[C@@H]1NC(=O)[C@H](Cc2c[nH]c3c(C)cccc23)NC(=O)[C@H]([C@@H](C)O)NC(=O)[C@H](CC(N)=O)NC(=O)[C@@H](NC(C)=O)C(C)(C)SSC(C)(C)[C@@H](C(=O)N[C@@H](Cc2ccc(OCCN)cc2)C(=O)N[C@@H](Cc2ccc3ccccc3c2)C(=O)NC2(C(=O)N[C@@H](CCCCNC(C)=O)C(=O)N[C@@H](CC(N)=O)C(=O)N[C@@H](Cc3cccnc3)C(=O)N(C)CC(=O)NCCOCCOCCOCCOCC[N+](C)(C)C)CCOCC2)NC1=O [compound 155] (Ac-[Pen]NT[Trp(7-Me)]K(Ac)[Pen][AEF][2Nal][Thp]K(Ac)N[3Pal][Sar]-X82; disulfide 1-6 (inferred))
4,154 A^2,"CC(=O)N(C)CCCC[C@@H]1NC(=O)[C@H](Cc2c[nH]c3c(C)cccc23)NC(=O)[C@H]([C@@H](C)O)NC(=O)[C@H](CC(=O)N(C)C)NC(=O)[C@@H](NC(=O)CCOCCNC(=N)N)C(C)(C)SSC(C)(C)[C@@H](C(=O)N[C@@H](Cc2ccc(OCCOCCOCC[N+](C)(C)C)cc2)C(=O)N[C@@H](Cc2ccc3ccccc3c2)C(=O)NC2(C(=O)N[C@@H](CCCCN(C)C(C)=O)C(=O)N[C@@H](CC(N)=O)C(=O)N[C@@H](Cc3cccnc3)C(=O)N(C)CC(=O)N(C)C)CCOCC2)NC1=O [compound 413, cPEG2gCO-Pen(3)-N(N(Me)2)-T-7MeW-K(NMeAc)-Pen(3)-APEG3F-2Nal-THP-K(NMeAc)-N-3Pya-Sar-CON(Me)2] (X31-[Pen]D(NMe2)T[Trp(7-Me)][Lys(Me)](Ac)[Pen]Y(CH2CH2OCH2CH2OCH2CH2NMe3+)[2Nal][Thp][Lys(Me)](Ac)N[3Pal][Sar]-NMe2; disulfide 1-6)"
5,170 A^2,"CC(=O)NCCCC[C@@H]1NC(=O)[C@H](Cc2c[nH]c3c(C)cccc23)NC(=O)[C@H]([C@@H](C)O)NC(=O)[C@H](CC(N)=O)NC(=O)[C@@H](NC(C)=O)C(C)(C)SSC(C)(C)[C@@H](C(=O)N[C@@H](Cc2ccc(OCCN)cc2)C(=O)N[C@@H](Cc2ccc3ccccc3c2)C(=O)N[C@@](C)(CCCCN)C(=O)N[C@H](CCCCNC(C)=O)C(=O)N[C@@H](CC(N)=O)C(=O)N[C@H](CC(C)C)C(=O)N(C)[C@H](Cc2ccc(O)cc2)C(N)=O)NC1=O (racemic) [compound 6, MeCO-Pen(3)-N-T-7MeW-K(Ac)-Pen(3)-AEF-2Nal-aMeK-k(Ac)-N-dL-NMeDTyr-CONH2]"
6,161 A^2,"CC(=O)N(C)CCCC[C@@H]1NC(=O)[C@H](Cc2c[nH]c3c(C)cccc23)NC(=O)[C@H]([C@@H](C)O)NC(=O)[C@H](CC(=O)N(C)C)NC(=O)[C@@H](NC(=O)CCOCCOCCN)C(C)(C)SSC(C)(C)[C@@H](C(=O)N[C@@H](Cc2ccc(OCCCCCN)cc2)C(=O)N[C@@H](Cc2ccc3ccccc3c2)C(=O)NC2(C(=O)N[C@@H](CCCCN(C)C(C)=O)C(=O)N[C@@H](CC(N)=O)C(=O)N[C@@H](Cc3cccnc3)C(=O)N(C)CC(=O)N(C)C)CCOCC2)NC1=O [compound 529, cPEG3AmCO-Pen(3)-N(N(Me)2)-T-7MeW-K(NMeAc)-Pen(3)-APF-2Nal-THP-K(NMeAc)-N-3Pya-Sar-CON(Me)2] (H-[PEG2][Pen]D(NMe2)T[Trp(7-Me)][Lys(Me)](Ac)[Pen]Y(X58)[2Nal][Thp][Lys(Me)](Ac)N[3Pal][Sar]-NMe2; disulfide 2-7)"
